Among the data in patent US8242145B2, “Cyclic diaryl ether compounds as antagonists of prostaglandin D2 receptors” (Panmira Pharmaceuticals, LLC, priority 2008, dated 2012) are IC50 values, retold here.

Structures are written as SMILES.

One assay has as its target T1, human DP1 receptor (Homo sapiens, UniProt Q13258).
T1 construct: tissue Biological Specialty Corporation; host or cells: human platelets, membranes
T1 sequence (Q13258 1-359): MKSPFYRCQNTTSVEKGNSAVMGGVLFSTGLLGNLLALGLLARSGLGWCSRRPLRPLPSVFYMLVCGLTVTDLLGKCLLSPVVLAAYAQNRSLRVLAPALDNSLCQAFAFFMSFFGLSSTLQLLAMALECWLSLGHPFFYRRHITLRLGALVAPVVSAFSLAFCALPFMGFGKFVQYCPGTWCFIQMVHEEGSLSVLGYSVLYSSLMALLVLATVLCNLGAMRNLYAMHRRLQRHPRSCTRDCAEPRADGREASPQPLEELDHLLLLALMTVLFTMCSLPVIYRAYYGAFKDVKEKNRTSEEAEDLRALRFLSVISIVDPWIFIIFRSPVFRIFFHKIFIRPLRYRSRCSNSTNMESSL
Put plainly: DP1 radioligand binding assay using [3H]BWA868C. As to conditions: hDP1 binding. The protocol:
The ability of a compound to bind to the human DP1 receptor was evaluated via a radioligand membrane binding assay using the DP1 selective synthetic ligand [^3H]BW A868C. Packed human platelets (Biological Specialty Corporation), were resuspended in 6 volumes of Hepes/HBSS buffer (10 mM Hepes, 1 mM DTT in Hanks Balanced Salt Solution (HBSS)), lysed and centrifuged at 75,000×g to pellet the membranes. Membranes were resuspended in Hepes/HBSS buffer to approximately 12 mg protein/ml. Membranes (20 μg protein/well) are incubated in 96-well plates with 2 nM [^3H]BWA868C and test compound in Assay Buffer (50 mM Hepes, 10 mM MnCl2, 1 mM EDTA, plus or minus 0.2% human serum albumin, pH 7.4) for 60 minutes at room temperature. The reactions are terminated by rapid filtration through Whatman GF/C glass fibre filter plates. The filter plates were pre-soaked in 0.33% polethylenimine for 30 minutes at room temperature then washed in Wash Buffer (50 mM Hepes, 0.5 M NaCl pH 7.4) prior to harvesting. After harvesting, the filter plates are washed 3 times with 1 ml cold Wash Buffer then dried. Scintillant is then added to the plates and the radioactivity retained on the filters is determined on a Packard TopCount (Perkin Elmer). Specific binding is determined as total radioactive binding minus non-specific binding in the presence of 10 μM BW A868C. IC50s were determined using GraphPad prism analysis of drug titration curves.

Another assay concerns the target T2, human DP2 receptor (Homo sapiens, UniProt Q9Y5Y4).
T2 construct: expressed in transfected cells
T2 sequence (Q9Y5Y4 1-395): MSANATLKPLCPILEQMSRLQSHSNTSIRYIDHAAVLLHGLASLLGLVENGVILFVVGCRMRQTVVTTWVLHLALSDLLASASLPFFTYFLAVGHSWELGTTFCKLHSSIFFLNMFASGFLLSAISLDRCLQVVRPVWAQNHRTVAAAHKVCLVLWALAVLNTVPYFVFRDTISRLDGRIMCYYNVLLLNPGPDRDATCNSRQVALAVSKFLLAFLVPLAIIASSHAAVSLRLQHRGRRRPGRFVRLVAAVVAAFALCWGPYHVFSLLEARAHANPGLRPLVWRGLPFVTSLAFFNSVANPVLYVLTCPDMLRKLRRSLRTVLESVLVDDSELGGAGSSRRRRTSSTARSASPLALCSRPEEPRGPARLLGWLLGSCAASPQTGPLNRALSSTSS
Put plainly: DP2/CRTH2 radioligand binding assay using [3H]PGD2. The following applies: hDP2 (CRTH2) binding assay. The method, then: The ability of a compound to bind to the human DP2 receptor is assessed via a radioligand binding assay using [^3H]PGD2. HEK293 cells stably expressing recombinant human DP2 are resuspended in 10 mM Hepes, 7.4 containing 1 mM DTT, lysed and centrifuged at 75,000×g to pellet the membranes. The membranes are resuspended in 10 mM Hepes, 7.4 containing 1 mM DTT and 10% glycerol to approximately 5 mg protein/ml. Membranes (2-10 μg protein/well) are incubated in 96-well plates with 1 nM [^3H]PGD2 and test compound in Assay Buffer (50 mM Hepes, 10 mM MnCl2, 1 mM EDTA, plus or minus 0.2% human serum albumin, pH 7.4) for 60 minutes at room temperature. The reactions are terminated by rapid filtration through Whatman GF/C glass fibre filter plates. The filter plates were pre-soaked in 0.33% polythylenimine for 30 minutes at room temperature then washed in Wash Buffer (50 mM Hepes, 0.5 M NaCl pH 7.4) prior to harvesting. After harvesting, the filter plates are washed 3 times with 1 ml cold Wash Buffer then dried. Scintillant is then added to the plates and the radioactivity retained on the filters is determined on a Packard TopCount (Perkin Elmer). Specific binding is determined as total radioactive binding minus non-specific binding in the presence of 10 μM PGD2. IC50s were determined using GraphPad prism analysis of drug titration curves.

The term IC50 denotes the concentration needed to halve the response being measured. The low end stands for greater potency, the high end for weaker potency. `Cc1nc(-c2ccc(Oc3cccc(CC(=O)O)c3)c(CN3C(=O)O[C@H](c4ccccc4)[C@@H]3C)c2)cn1C` [Compound 1-70, {3-[4-(1,2-Dimethyl-1H-imidazol-4-yl)-2-((4S,5R)-4-methyl-2-oxo-5-phenyl-oxazolidin-3-ylmethyl)-phenoxy]-phenyl}-acetic acid]: the IC50 on human DP1 receptor is over 1000 nM; on human DP2 receptor, under 300 nM.

On to `C[C@H]1[C@@H](c2ccccc2)OC(=O)N1Cc1cc(-c2nccn2C)ccc1Oc1cccc(CC(=O)O)c1` [Compound 1-73, {3-[4-(1-Methyl-1H-imidazol-2-yl)-2-((4S,5R)-4-methyl-2-oxo-5-phenyl-oxazolidin-3-ylmethyl)-phenoxy]-phenyl}-acetic acid], for which the IC50 on human DP1 receptor and at human DP2 receptor was 300 to 1000 nM in each case.

Take `COc1ccc(CC(=O)O)cc1Oc1ccc(NC(=O)c2cc(C(F)(F)F)ccc2F)cc1CN1CCOC1=O` [Compound 1-98, {3-[4-(2-Fluoro-5-trifluoromethyl-benzoylamino)-2-(2-oxo-oxazolidin-3-ylmethyl)-phenoxy]-4-methoxy-phenyl}-acetic acid]: the figures for the half-maximal inhibitory concentration (IC50) on human DP1 receptor and on human DP2 receptor were over 1000 nM and under 300 nM, respectively.

Regarding `COc1ccc(CC(=O)O)cc1Oc1ccc(Br)cc1CN1CCN(C)C1=O` [Compound 3-4, {3-[4-Bromo-2-(3-methyl-2-oxo-imidazolidin-1-ylmethyl)-phenoxy]-4-methoxy-phenyl}-acetic acid], the IC50 on human DP1 receptor and at human DP2 receptor was over 1000 nM each time.

On to `COc1ccc(CC(=O)O)cc1Oc1ccc(-c2ccccc2)cc1CN1CCOC1=O` [Compound 1-95, {4-Methoxy-3-[3-(2-oxo-oxazolidin-3-ylmethyl)-biphenyl-4-yloxy]-phenyl}-acetic acid], for which the IC50 on human DP1 receptor was over 1000 nM; on human DP2 receptor it was under 300 nM.

Take `COc1ccc(CC(=O)O)cc1Oc1ccc(NC(=O)C(C)C)cc1CN1CCOC1=O` [Compound 1-103, {3-[4-Isobutyrylamino-2-(2-oxo-oxazolidin-3-ylmethyl)-phenoxy]-4-methoxy-phenyl}-acetic acid]: at human DP2 receptor, the IC50 was under 300 nM.

As to `C[C@H]1[C@@H](c2ccccc2)OC(=O)N1Cc1cc(-c2ccc(C(N)=O)cn2)ccc1Oc1cccc(CC(=O)O)c1` [Compound 1-68, {3-[4-(5-Carbamoyl-pyridin-2-yl)-2-((4S,5R)-4-methyl-2-oxo-5-phenyl-oxazolidin-3-ylmethyl)-phenoxy]-phenyl}-acetic acid], the IC50 on human DP1 receptor is under 300 nM; at human DP2 receptor, 300 to 1000 nM.

`COc1ccc(CC(=O)O)cc1Oc1ccc(NC(=O)C2CCCCC2)cc1CN1CCOC1=O` [Compound 1-102, {3-[4-(Cyclohexanecarbonyl-amino)-2-(2-oxo-oxazolidin-3-ylmethyl)-phenoxy]-4-methoxy-phenyl}-acetic acid]: the half-maximal inhibitory concentration (IC50) on human DP2 receptor was under 300 nM.

`COc1ccc(CC(=O)O)cc1Oc1ccc(NC(=O)C(C)(C)C)cc1CN1CCOC1=O` [Compound 1-100, {3-[4-(2,2-Dimethyl-propionylamino)-2-(2-oxo-oxazolidin-3-ylmethyl)-phenoxy]-4-methoxy-phenyl}-acetic acid] yielded a concentration for half-maximal inhibition (IC50) at human DP2 receptor of under 300 nM.

Regarding `C[C@H]1[C@@H](c2ccccc2)OC(=O)N1Cc1cc(-c2ccc(N)cn2)ccc1Oc1cccc(CC(=O)O)c1` [Compound 1-69, {3-[4-(5-Amino-pyridin-2-yl)-2-((4S,5R)-4-methyl-2-oxo-5-phenyl-oxazolidin-3-ylmethyl)-phenoxy]-phenyl}-acetic acid], the IC50 at human DP1 receptor and on human DP2 receptor was under 300 nM each time.

For `C[C@H]1[C@@H](c2ccccc2)OC(=O)N1Cc1cc(-c2cnc(N)cn2)ccc1Oc1cccc(CC(=O)O)c1` [Compound 1-20, {3-[4-(5-Amino-pyrazin-2-yl)-2-((4S,5R)-4-methyl-2-oxo-5-phenyl-oxazolidin-3-ylmethyl)-phenoxy]-phenyl}-acetic acid], the IC50 on human DP1 receptor is under 300 nM; at human DP2 receptor, 300 to 1000 nM.

In the case of `CC(C)(C(=O)O)c1cccc(Oc2ccc(C(F)(F)F)cc2CN2CCOC2=O)c1` [Compound 1-11, 2-Methyl-2-{3-[2-(2-oxo-oxazolidin-3-ylmethyl)-4-trifluoromethyl-phenoxy]-phenyl}-propionic acid], the IC50 on human DP1 receptor and on human DP2 receptor was over 1000 nM in each case.

Turning to `COc1ccc(CC(=O)O)cc1Oc1ccc(-c2ccccc2S(C)(=O)=O)cc1CN1CCOC1=O` [Compound 1-94, {3-[2′-Methanesulfonyl-3-(2-oxo-oxazolidin-3-ylmethyl)-biphenyl-4-yloxy]-4-methoxy-phenyl}-acetic acid], the figures for the IC50 at human DP1 receptor and at human DP2 receptor were over 1000 nM and under 300 nM, respectively.

Consider `Cc1ncc(-c2ccc(Oc3cccc(CC(=O)O)c3)c(CN3C(=O)O[C@H](c4ccccc4)[C@@H]3C)c2)n1C` [Compound 1-71, {3-[4-(2,3-Dimethyl-3H-imidazol-4-yl)-2-((4S,5R)-4-methyl-2-oxo-5-phenyl-oxazolidin-3-ylmethyl)-phenoxy]-phenyl}-acetic acid], for which the half-maximal inhibitory concentration (IC50) on human DP1 receptor and on human DP2 receptor was 300 to 1000 nM throughout.

Regarding `O=C(O)Cc1cc(Oc2ccc(C(F)(F)F)cc2CN2CCOC2=O)ccc1Br` [Compound 1-12, {2-Bromo-5-[2-(2-oxo-oxazolidin-3-ylmethyl)-4-trifluoromethyl-phenoxy]-phenyl}-acetic acid], the IC50 at human DP2 receptor is over 1000 nM.

For `COc1ccc(CC(=O)O)cc1Oc1ccc(NC(=O)c2cccnc2)cc1CN1CCOC1=O` [Compound 1-105, (4-Methoxy-3-{2-(2-oxo-oxazolidin-3-ylmethyl)-4-[(pyridine-3-carbonyl)-amino]-phenoxy}-phenyl)-acetic acid], the IC50 on human DP2 receptor was over 1000 nM.

Consider `COc1ccc(CC(=O)O)cc1Oc1ccc(NC(=O)c2ccncc2)cc1CN1CCOC1=O` [Compound 1-104, (4-Methoxy-3-{2-(2-oxo-oxazolidin-3-ylmethyl)-4-[(pyridine-4-carbonyl)-amino]-phenoxy}-phenyl)-acetic acid], for which the IC50 on human DP2 receptor was under 300 nM.

For the compound `COc1ccc(CC(=O)O)cc1Oc1ccc(NC(=O)Cc2ccccc2)cc1CN1CCOC1=O` [Compound 1-101, {4-Methoxy-3-[2-(2-oxo-oxazolidin-3-ylmethyl)-4-phenylacetylamino-phenoxy]-phenyl}-acetic acid], on human DP2 receptor, the IC50 is under 300 nM.

For the compound `COCC(=O)Nc1ccc(Oc2cc(CC(=O)O)ccc2OC)c(CN2CCOC2=O)c1` [Compound 1-107, {4-Methoxy-3-[4-(2-methoxy-acetylamino)-2-(2-oxo-oxazolidin-3-ylmethyl)-phenoxy]-phenyl}-acetic acid], at human DP2 receptor, the IC50 was 300 to 1000 nM.

At human DP2 receptor, `COc1ccc(CC(=O)O)cc1Oc1ccc(NC(=O)COc2ccccc2)cc1CN1CCOC1=O` [Compound 1-106, {4-Methoxy-3-[2-(2-oxo-oxazolidin-3-ylmethyl)-4-(2-phenoxy-acetylamino)-phenoxy]-phenyl}-acetic acid] gave an IC50 of under 300 nM.

On to `COc1ccc(CC(=O)O)cc1Oc1ccc(NC(=O)NCc2ccccc2)cc1CN1CCOC1=O` [Compound 1-108, {3-[4-(3-Benzyl-ureido)-2-(2-oxo-oxazolidin-3-ylmethyl)-phenoxy]-4-methoxy-phenyl}-acetic acid], for which, at human DP2 receptor, the IC50 is under 300 nM.
